{"source": "paper PMC12677607", "about": "“Identification of a Pair of Linear or Cyclic Naturally Inspired Bifunctional Lipopeptide Antibiotics That Overcome Antimicrobial Resistance” (Advanced Science, 2025)", "key": {"[1]": {"tested_on": "Mycobacterium smegmatis mc2155", "assay": "microbe, parasite or virus in culture", "details": "Mycolicibacterium smegmatis, MC2155, read-out: MIC Mycobacterium smegmatis mc2155"}, "[2]": {"tested_on": "Streptococcus pyogenes ATCC 19615", "assay": "microbe, parasite or virus in culture", "assay_type": "cell-based", "details": "Streptococcus pyogenes, ATCC19615, 16 h, read-out: MIC Streptococcus pyogenes ATCC 19615", "procedure,_shortened": "(§1)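 Broth micro-dilution in LB; overnight cultures diluted 5000-fold, mixed 1:1 with 2-fold peptide series from 64 to 0.125 µg mL^−1. MIC taken as lowest concentration with no visible growth; n = 2 independent runs.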"}, "[3]": {"tested_on": "Enterococcus faecium 35682", "assay": "microbe, parasite or virus in culture", "assay_type": "cell-based", "details": "Enterococcus faecium, 35682, 16 h, read-out: MIC Enterococcus faecium 35682", "procedure,_shortened": "as §1"}, "[4]": {"tested_on": "Staphylococcus aureus Newman", "assay": "microbe, parasite or virus in culture", "assay_type": "cell-based", "details": "Staphylococcus aureus, NEWMAN, 16 h, read-out: MIC Staphylococcus aureus Newman", "procedure,_shortened": "as §1"}, "[5]": {"tested_on": "Enterococcus faecalis ATCC 29212", "assay": "microbe, parasite or virus in culture", "assay_type": "cell-based", "details": "Enterococcus faecalis, ATCC29212, 16 h, read-out: MIC Enterococcus faecalis ATCC 29212", "procedure,_shortened": "as §1"}, "[6]": {"tested_on": "Staphylococcus aureus USA300", "assay": "microbe, parasite or virus in culture", "assay_type": "cell-based", "details": "Staphylococcus aureus, USA300, 16 h, read-out: MIC Staphylococcus aureus USA300", "procedure,_shortened": "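Growth inhibition read visually; MIC taken as lowest inhibitory concentration. LB medium; inocula from overnight cultures diluted 5000-fold, S. aureus 10000-fold. Peptide range 64 to 0.125 µg mL^−1 (2-fold, pre-mix), two independent determinations.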"}, "Enterococcus faecalis 26": {"tested_on": "Enterococcus faecalis 26", "assay": "microbe, parasite or virus in culture", "assay_type": "cell-based", "details": "Enterococcus faecalis, 26, 16 h, read-out: MIC Enterococcus faecalis 26", "procedure,_shortened": "as §1"}, "[7]": {"tested_on": "Staphylococcus aureus ATCC 25923", "assay": "microbe, parasite or virus in culture", "assay_type": "cell-based", "details": "Staphylococcus aureus, ATCC25923, 16 h, read-out: MIC Staphylococcus aureus ATCC 25923", "procedure,_shortened": "as §1"}, "[8]": {"tested_on": "Staphylococcus aureus ATCC 6538", "assay": "microbe, parasite or virus in culture", "assay_type": "cell-based", "details": "Staphylococcus aureus, ATCC6538, 16 h, read-out: MIC Staphylococcus aureus ATCC 6538", "procedure,_shortened": "as §1"}, "Enterococcus faecalis 28": {"tested_on": "Enterococcus faecalis 28", "assay": "microbe, parasite or virus in culture", "assay_type": "cell-based", "details": "Enterococcus faecalis, 28, 16 h, read-out: MIC Enterococcus faecalis 28", "procedure,_shortened": "as §1"}, "[9]": {"tested_on": "Streptococcus mutans ATCC 25175", "assay": "microbe, parasite or virus in culture", "assay_type": "cell-based", "details": "Streptococcus mutans, ATCC25175, 16 h, read-out: MIC Streptococcus mutans ATCC 25175", "procedure,_shortened": "as §1"}, "K. pneumoniae CRKP5452": {"tested_on": "K. pneumoniae CRKP5452", "assay": "Resistance acquisition by serial passaging", "assay_type": "cell-based", "details": "K. pneumoniae CRKP5452, sub-MIC levels, daily passage for 21 days, n = 2", "protocol": "(§2) Overnight cultures S. aureus USA300 were diluted 10000‐fold in LB broth, and 100 µL of dilute cell suspension was added to 96‐well plates containing 100 µL serially diluted aquicidine C4, telomycin, and daptomycin (with 15 mM CaCl2). Overnight cultures K. pneumoniae CRKP5452 were diluted 5000‐fold in LB broth, and 100 µL of dilute cell suspension was added to 96‐well plates containing 100 µL serially diluted aquicidine L and colistin. After an incubation of 24 h at 37 °C, the MIC value was determined. […] The MIC value was recorded as described above, and the process was repeated daily for 21 days. Experiments were performed two independent times (n = 2)."}, "K. pneumoniae 15580": {"tested_on": "K. pneumoniae 15580", "assay": "MIC against colistin-resistant strain", "assay_type": "cell-based", "details": "Figure S127a", "protocol": "(§3) All MIC assays were performed two independent times (n = 2) in 96‐well plates using a broth micro‐dilution method. The lowest concentration of that inhibited visible microbial growth was recorded as the MIC value.\n(§4) For most of bacterial strains, overnight cultures were diluted 5000‐fold in LB broth. For E. faecium and S. aureus, overnight cultures were diluted 1000‐ and 10000‐fold in LB broth, respectively. 100 µL of diluted cells was mixed with 100 µL of LB broth containing each peptide ranging from 64 to 0.125 µg mL^−1 at 2‐fold serial dilutions."}, "[10]": {"tested_on": "Klebsiella pneumoniae NCTC 5056", "assay": "microbe, parasite or virus in culture", "assay_type": "cell-based", "details": "Figure S127a, colistin-resistant strain", "procedure,_shortened": "as §1"}, "[11]": {"tested_on": "Klebsiella pneumoniae CRKP 5452", "assay": "microbe, parasite or virus in culture", "assay_type": "cell-based", "details": "Figure S127a, wild type", "procedure,_shortened": "as §1"}, "[12]": {"tested_on": "Klebsiella pneumoniae CRKP HS11286", "assay": "microbe, parasite or virus in culture", "assay_type": "cell-based", "details": "Figure S127a", "procedure,_shortened": "as §1"}, "[13]": {"tested_on": "K. pneumoniae CRKP 5452 PhoQL348Q", "assay": "MIC against colistin-resistant mutant", "assay_type": "cell-based", "details": "Figure S127a, colistin-resistant mutant from serial passaging", "protocol": "as §3, §4, §2\nSingle‐nucleotide polymorphisms (SNPs) for telomycin‐, daptomycin‐ or colistin‐resistant mutants were identified using SNIPPY by mapping DNBSEQ‐seq reads to the reference genome of S. aureus USA300 or K. pneumoniae CRKP5452."}, "fungi": {"tested_on": "fungi", "details": "Figure S20, known peptide; cited from earlier work"}}}
{"compound": "CN[C@H](CC(C)C)C(=O)N[C@H]1C(=O)N[C@@H](CC(N)=O)C(=O)N[C@H]2C(=O)N[C@H]3C(=O)N[C@H](C(=O)N[C@H](C(=O)O)c4cc(O)cc(O)c4-c4cc3ccc4O)[C@H](O)c3ccc(c(Cl)c3)Oc3cc2cc(c3O[C@@H]2O[C@H](CO)[C@@H](O)[C@H](O)[C@H]2O[C@H]2C[C@](C)(N)[C@H](O)[C@H](C)O2)Oc2ccc(cc2Cl)[C@H]1O", "note": "[Vancomycin, reference compound]", "values": [{"measurement": "MIC", "setting": "[1]", "result": "> 64", "unit": "µg/mL"}, {"measurement": "MIC", "setting": "[2]", "result": 0.5, "unit": "µg/mL"}, {"measurement": "MIC", "setting": "[3]", "result": "> 64", "unit": "µg/mL"}, {"measurement": "MIC", "setting": "[4]", "result": 0.5, "unit": "µg/mL"}, {"measurement": "MIC", "setting": "[5]", "result": 2, "unit": "µg/mL"}, {"measurement": "MIC", "setting": "[6]", "result": 1, "unit": "µg/mL"}, {"measurement": "MIC", "setting": "Enterococcus faecalis 26", "result": 1, "unit": "µg/mL"}, {"measurement": "MIC", "setting": "[7]", "result": 1, "unit": "µg/mL"}, {"measurement": "MIC", "setting": "[8]", "result": 1, "unit": "µg/mL"}, {"measurement": "MIC", "setting": "Enterococcus faecalis 28", "result": "> 64", "unit": "µg/mL"}, {"measurement": "MIC", "setting": "[9]", "result": 2, "unit": "µg/mL"}]}
{"compound": "Colistin [reference compound]", "values": [{"measurement": "increase of MIC during serial passaging", "setting": "K. pneumoniae CRKP5452", "result": 13.3, "unit": "fold"}, {"measurement": "antibacterial activity (MIC) K. pneumoniae 15580", "setting": "K. pneumoniae 15580", "result": "> 64", "unit": "µg/mL"}, {"measurement": "antibacterial activity (MIC) K. pneumoniae NCTC 5056", "setting": "[10]", "result": 32, "unit": "µg/mL"}, {"measurement": "antibacterial activity (MIC) K. pneumoniae CRKP 5452", "setting": "[11]", "result": 0.125, "unit": "µg/mL"}, {"measurement": "antibacterial activity (MIC) K. pneumoniae CRKP HS11286", "setting": "[12]", "result": 0.125, "unit": "µg/mL"}, {"measurement": "antibacterial activity (MIC) K. pneumoniae CRKP 5452 PhoQL348Q", "setting": "[13]", "result": 4, "unit": "µg/mL"}]}
{"compound": "Keanumycin A", "values": [{"measurement": "anti-fungal activity", "setting": "fungi", "result": "Pot ent anti-fungal activity"}]}
